In article PMC5805504 (Oncotarget, 2017):
Values joined by “and” are separate entries in the source; they are usually repeats but may differ in a detail not shown here. Equal entries are not always repeated. Where two headings read alike, the source gives them in different places.

Experiments:
[1] = tested on: TGFβ-responsive p3TP-Lux reporter in Mv1Lu cells; experiment: Mink lung epithelial cell p3TP-Lux reporter assay; assay type: cell-based; conditions: TGFβ1-mediated luciferase production, read-out: IC50 (SE), Mv1Lu p3TP-Lux
Procedure: The TGFβ-responsive p3TP-Lux reporter construct was stably expressed in Mv1Lu mink lung epithelial cells. […] Media was replaced with 0.5% FBS/DMEM and incubated at 37C/5% CO2 for 2 hours. […] The following day, cells were washed with PBS and lysed with lysis buffer by incubating for 20 to 30 minutes at room temperature. Counts were taken on the MicroBeta JET by injecting 50 μL Luciferase Assay Reagent II (PROMEGA), delay for 1 second and count for 5 seconds. Curve fitting utilized a 4-parameter logistic model and absolute IC50 values were reported.

[2] = patients with myelodysplastic syndrome; cited from earlier work
[3] = tested on: Calu6 human xenograft lung cancer model; experiment: Calu6 in vivo xenograft cancer model; set-up: species or system athymic nude mice
Procedure: (§1) Female athymic nude mice from Charles River weighing 22 to 26 grams were implanted subcutaneously in the flank with 1×10^7 cells in a 1:1 (v/v) mixture in matrigel. […] Tumor volumes and body weight were determined by electronic caliper every 2 to 3 days. Repeat measures analysis was utilized with log transformed data and the auto-regression (AR) method to determine the overall p-value for galunisertib growth curves relative to the vehicle control in both tumor models. […]

[4] = tested on: TGFβ ligand (SMAD2/3-responsive promoter); experiment: Cell based luciferase reporter assay (SMAD2/3), TGFβ-stimulated HEK293_SMAD2/3 cells; conditions: Homo sapiens; TGFβ1 2 nM stimulated HEK293_SMAD2/3
RSK4 = RSK4 (Homo sapiens, UniProt Q9UK32); experiment: KINOMEscan kinase competition binding assay (DiscoverX); conditions: absence of ATP, three-point titration
From the text: (§2) Data are presented as Geomean ± SD.

Alk3/BMPR1A = target: T1, Alk3/BMPR1A (Homo sapiens, UniProt P36894); experiment: as above; conditions: absence of ATP, three-point titration
T1 construct: purchased DiscoverX
From the text: as §2

Abl1 = target: T2, Abl1 (Homo sapiens, UniProt P00519); experiment: as above; conditions: absence of ATP, three-point titration
T2 construct: purchased DiscoverX
From the text: as §2

ACVR2B = target: T3, ACVR2B (Homo sapiens, UniProt Q13705); experiment: as above; conditions: absence of ATP, three-point titration
T3 construct: purchased DiscoverX
T3 sequence (Q13705 19-512): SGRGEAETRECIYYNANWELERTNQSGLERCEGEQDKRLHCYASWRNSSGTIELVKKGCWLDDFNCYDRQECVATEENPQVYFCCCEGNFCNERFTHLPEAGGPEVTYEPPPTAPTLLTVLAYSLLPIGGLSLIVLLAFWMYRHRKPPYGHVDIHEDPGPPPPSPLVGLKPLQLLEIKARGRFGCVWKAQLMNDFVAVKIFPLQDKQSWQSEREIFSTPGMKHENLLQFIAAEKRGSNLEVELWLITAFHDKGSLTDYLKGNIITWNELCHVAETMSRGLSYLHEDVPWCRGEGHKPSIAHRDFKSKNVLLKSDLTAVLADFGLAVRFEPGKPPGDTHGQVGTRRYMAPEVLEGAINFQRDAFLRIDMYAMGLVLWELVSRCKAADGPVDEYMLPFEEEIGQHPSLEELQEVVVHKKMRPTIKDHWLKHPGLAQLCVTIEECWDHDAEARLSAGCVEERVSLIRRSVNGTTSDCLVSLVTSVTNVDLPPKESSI
From the text: as §2

TGFβR2 = target: T4, TGFβR2 (Homo sapiens, UniProt P37173); experiment: as above; conditions: absence of ATP, three-point titration
T4 construct: purchased DiscoverX
T4 sequence (P37173 23-567): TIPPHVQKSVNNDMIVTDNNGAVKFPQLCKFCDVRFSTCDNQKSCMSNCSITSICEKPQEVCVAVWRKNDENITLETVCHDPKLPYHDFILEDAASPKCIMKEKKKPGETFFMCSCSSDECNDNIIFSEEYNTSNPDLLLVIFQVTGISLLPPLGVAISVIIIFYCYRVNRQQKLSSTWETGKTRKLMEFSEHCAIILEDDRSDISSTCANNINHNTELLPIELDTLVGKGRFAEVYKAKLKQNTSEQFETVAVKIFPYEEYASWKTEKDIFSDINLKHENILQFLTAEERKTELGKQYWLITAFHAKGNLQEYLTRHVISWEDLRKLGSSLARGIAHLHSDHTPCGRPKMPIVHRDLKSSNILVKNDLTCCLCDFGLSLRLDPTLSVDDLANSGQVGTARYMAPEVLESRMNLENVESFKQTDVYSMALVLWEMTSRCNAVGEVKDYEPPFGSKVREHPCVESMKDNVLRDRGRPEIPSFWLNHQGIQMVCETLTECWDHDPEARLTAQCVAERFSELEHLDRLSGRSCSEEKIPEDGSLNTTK
From the text: as §2

Alk4/ACVR1B = target: T5, Alk4/ACVR1B (Homo sapiens, UniProt P36896); experiment: as above; conditions: absence of ATP, three-point titration
T5 construct: purchased DiscoverX
T5 sequence (P36896 24-505): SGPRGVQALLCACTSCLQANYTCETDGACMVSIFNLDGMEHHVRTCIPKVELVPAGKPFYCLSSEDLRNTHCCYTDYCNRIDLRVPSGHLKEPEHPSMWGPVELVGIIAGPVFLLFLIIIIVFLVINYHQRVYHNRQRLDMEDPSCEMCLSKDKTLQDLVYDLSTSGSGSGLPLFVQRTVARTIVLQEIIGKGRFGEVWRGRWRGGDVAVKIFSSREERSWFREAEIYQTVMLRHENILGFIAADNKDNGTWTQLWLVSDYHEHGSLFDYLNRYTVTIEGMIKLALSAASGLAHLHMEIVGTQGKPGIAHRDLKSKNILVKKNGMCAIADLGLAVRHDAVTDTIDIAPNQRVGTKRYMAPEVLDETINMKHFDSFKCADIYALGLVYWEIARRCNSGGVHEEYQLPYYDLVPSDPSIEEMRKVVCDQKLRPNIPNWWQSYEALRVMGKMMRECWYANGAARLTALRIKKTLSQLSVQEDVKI
From the text: as §2

TNIK = target: T6, TNIK (Homo sapiens, UniProt Q9UKE5); experiment: as above; conditions: absence of ATP, three-point titration
T6 construct: purchased DiscoverX
From the text: as §2

MINK = target: T7, MINK (Homo sapiens, UniProt Q8N4C8); experiment: as above; conditions: absence of ATP, three-point titration
T7 construct: purchased DiscoverX
From the text: as §2

RIPK2 = target: T8, RIPK2 (Homo sapiens, UniProt O43353); experiment: as above; conditions: absence of ATP, three-point titration
T8 construct: purchased DiscoverX
T8 sequence (O43353 whole entry): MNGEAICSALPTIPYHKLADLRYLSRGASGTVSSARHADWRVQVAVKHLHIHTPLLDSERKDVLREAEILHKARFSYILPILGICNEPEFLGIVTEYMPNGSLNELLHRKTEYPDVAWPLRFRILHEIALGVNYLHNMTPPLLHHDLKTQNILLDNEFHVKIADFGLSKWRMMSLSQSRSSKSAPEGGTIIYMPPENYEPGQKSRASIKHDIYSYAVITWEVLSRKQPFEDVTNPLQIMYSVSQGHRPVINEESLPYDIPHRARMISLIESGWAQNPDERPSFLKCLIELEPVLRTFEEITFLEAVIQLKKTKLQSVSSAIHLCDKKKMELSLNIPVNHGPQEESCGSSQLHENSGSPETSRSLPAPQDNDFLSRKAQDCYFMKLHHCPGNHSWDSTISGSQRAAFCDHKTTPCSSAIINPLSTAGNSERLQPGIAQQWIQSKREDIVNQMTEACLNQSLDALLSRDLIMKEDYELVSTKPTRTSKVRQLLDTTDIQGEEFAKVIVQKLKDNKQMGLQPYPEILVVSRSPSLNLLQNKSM
From the text: as §2

GAK = target: T9, GAK (Homo sapiens, UniProt O14976); experiment: as above; conditions: absence of ATP, three-point titration
T9 construct: purchased DiscoverX
T9 sequence (O14976 whole entry): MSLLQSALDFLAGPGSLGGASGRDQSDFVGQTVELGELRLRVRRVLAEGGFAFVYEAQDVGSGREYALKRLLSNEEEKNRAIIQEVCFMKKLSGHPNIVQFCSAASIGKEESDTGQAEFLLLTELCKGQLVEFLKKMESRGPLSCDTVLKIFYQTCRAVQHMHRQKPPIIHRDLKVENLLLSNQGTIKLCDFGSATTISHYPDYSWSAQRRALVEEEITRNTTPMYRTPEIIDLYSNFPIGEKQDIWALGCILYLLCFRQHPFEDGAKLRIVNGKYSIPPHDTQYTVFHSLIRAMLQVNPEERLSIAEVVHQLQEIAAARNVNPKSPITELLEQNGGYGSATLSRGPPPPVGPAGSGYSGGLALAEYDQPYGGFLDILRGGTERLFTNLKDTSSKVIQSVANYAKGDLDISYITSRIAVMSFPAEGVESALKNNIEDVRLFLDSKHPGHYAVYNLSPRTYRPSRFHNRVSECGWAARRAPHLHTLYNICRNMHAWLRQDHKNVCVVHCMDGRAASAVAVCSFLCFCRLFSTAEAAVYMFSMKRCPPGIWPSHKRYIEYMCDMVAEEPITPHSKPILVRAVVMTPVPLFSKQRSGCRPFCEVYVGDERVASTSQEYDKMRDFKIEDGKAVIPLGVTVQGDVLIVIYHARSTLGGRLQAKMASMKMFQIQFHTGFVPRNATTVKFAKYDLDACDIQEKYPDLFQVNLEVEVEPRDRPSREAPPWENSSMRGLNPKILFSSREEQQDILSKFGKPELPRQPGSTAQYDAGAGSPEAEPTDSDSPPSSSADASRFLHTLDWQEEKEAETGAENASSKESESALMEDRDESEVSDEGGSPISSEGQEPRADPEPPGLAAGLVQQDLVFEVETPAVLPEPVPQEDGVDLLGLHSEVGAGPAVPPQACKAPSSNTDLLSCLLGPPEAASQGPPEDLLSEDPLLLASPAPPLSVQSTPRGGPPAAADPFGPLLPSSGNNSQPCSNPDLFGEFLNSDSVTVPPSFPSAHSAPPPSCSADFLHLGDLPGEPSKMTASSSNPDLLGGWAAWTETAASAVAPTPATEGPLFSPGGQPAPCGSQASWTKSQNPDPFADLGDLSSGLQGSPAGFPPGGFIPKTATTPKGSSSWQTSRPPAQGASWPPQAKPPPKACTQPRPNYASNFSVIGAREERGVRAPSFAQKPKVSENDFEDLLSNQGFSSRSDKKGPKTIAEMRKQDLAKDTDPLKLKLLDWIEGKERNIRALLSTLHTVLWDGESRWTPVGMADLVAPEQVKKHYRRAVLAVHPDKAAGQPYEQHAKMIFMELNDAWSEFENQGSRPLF
From the text: as §2

Alk1/ACVRL1 = target: T10, Alk1/ACVRL1 (Homo sapiens, UniProt P37023); experiment: as above; conditions: absence of ATP, three-point titration
T10 construct: purchased DiscoverX
From the text: as §2

ZAK = target: T11, ZAK (Homo sapiens, UniProt Q9NYL2); experiment: as above; conditions: absence of ATP, three-point titration
T11 construct: purchased DiscoverX
From the text: as §2

ACVR2A = target: T12, ACVR2A (Homo sapiens, UniProt P27037); experiment: as above; conditions: absence of ATP, three-point titration
T12 construct: purchased DiscoverX
From the text: as §2

BMPR2 = target: T13, BMPR2 (Homo sapiens, UniProt Q13873); experiment: as above; conditions: absence of ATP, three-point titration
T13 construct: purchased DiscoverX
From the text: as §2

Braf = target: T14, Braf (Homo sapiens, UniProt P15056); experiment: as above; conditions: absence of ATP, three-point titration
T14 construct: purchased DiscoverX
From the text: as §2

Alk2/ACVR1 = target: T15, Alk2/ACVR1 (Homo sapiens, UniProt Q04771); experiment: as above; conditions: absence of ATP, three-point titration
T15 construct: purchased DiscoverX
T15 sequence (Q04771 21-509): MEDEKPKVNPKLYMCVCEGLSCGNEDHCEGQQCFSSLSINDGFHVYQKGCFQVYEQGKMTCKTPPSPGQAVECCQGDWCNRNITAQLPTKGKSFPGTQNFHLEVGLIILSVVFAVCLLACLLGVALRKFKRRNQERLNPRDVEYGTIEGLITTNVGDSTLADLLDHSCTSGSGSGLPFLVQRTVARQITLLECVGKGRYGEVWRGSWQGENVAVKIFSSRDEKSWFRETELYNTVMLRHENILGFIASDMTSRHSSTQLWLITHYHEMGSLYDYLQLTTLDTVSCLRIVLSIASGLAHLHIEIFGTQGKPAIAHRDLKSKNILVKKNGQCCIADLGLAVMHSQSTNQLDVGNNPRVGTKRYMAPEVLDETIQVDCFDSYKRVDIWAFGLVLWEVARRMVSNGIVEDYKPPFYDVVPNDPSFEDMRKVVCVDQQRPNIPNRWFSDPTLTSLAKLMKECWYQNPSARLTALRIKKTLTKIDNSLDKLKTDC
From the text: as §2

NLK = target: T16, NLK (Homo sapiens, UniProt Q9UBE8); experiment: as above; conditions: absence of ATP, three-point titration
T16 construct: purchased DiscoverX
T16 sequence (Q9UBE8 whole entry): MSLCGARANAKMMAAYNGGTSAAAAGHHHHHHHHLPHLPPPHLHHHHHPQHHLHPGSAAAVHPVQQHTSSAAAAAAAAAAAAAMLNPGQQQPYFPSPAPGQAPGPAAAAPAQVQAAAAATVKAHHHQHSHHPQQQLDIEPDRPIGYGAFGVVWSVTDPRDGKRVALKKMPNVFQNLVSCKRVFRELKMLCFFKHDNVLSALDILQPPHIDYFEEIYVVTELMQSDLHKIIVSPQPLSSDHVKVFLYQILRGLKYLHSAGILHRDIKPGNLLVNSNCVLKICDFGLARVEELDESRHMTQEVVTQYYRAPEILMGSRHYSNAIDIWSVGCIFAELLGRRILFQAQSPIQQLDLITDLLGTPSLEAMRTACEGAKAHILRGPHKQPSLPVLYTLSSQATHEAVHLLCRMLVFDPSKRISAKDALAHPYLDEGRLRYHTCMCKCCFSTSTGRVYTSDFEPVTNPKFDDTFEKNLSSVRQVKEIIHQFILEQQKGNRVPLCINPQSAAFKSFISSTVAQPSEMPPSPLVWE
From the text: as §2

CSNK1E1 = target: T17, CSNK1E1 (Homo sapiens, UniProt P49674); experiment: as above; conditions: absence of ATP, three-point titration
T17 construct: purchased DiscoverX
From the text: as §2

Alk6/BMPR1 = target: T18, Alk6/BMPR1 (Homo sapiens, UniProt O00238); experiment: as above; conditions: absence of ATP, three-point titration
T18 construct: purchased DiscoverX
T18 sequence (O00238 14-502): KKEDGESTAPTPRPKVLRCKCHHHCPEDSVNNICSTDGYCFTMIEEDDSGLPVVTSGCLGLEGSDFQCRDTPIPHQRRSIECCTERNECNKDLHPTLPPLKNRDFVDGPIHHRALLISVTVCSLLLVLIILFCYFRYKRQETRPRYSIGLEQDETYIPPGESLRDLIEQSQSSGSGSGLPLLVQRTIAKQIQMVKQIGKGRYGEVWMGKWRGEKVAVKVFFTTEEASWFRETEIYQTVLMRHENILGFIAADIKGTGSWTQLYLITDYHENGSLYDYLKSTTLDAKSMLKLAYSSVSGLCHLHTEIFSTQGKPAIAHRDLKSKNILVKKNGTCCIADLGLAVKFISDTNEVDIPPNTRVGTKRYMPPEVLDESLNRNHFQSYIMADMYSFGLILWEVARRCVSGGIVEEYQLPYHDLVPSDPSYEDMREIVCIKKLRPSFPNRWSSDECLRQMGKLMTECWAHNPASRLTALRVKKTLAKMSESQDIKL
From the text: as §2

[5] = tested on: MX1 human xenograft breast cancer model; experiment: MX1 in vivo xenograft cancer model; set-up: species or system athymic nude mice
Procedure: as §1

[6] = rats; cited from earlier work
U87MG glioblastoma cells = experiment: U87MG in vitro cell migration assay; assay type: cell-based, human
Procedure: U87MG cells were cultured in minimum essential medium (MEM) supplemented with 10% fetal bovine serum (FBS). Eight micron migration plates (24 well) were coated with denatured collagen I (BD, cat# 354326) at 10 μg/ml. Following overnight incubation at 4°C, the lower chambers were washed three times with phosphate buffered saline (PBS) followed by blocking with 1% bovine serum albumin (BSA) for 1 hour. The chambers were washed 3 times in PBS then 200 μl of migration buffer [MEM containing 5% blocking solution (Sigma, cat# 2393), […]] was added. […] After 1 hour of culture, 10 ng/ml of recombinant human (rh) TGFβ1 was added to upper chambers and cells were allowed to migrate in a 37°C incubator for 48 hours. The non-migrated cells were aspirated and wiped off the upper chamber with a cotton swab. The inserts were washed 3 times with PBS and the chambers transferred to new […]. The chambers were fixed with 500 μl of 10% neutral buffered formalin (NBF) for 20 minutes followed by three washes with PBS. The cells were stained with Hoechst at 1:10,000 for 20 minutes in the dark then washed three times with PBS. The membranes were cut with a scalpel, placed on a slide and the pictures were taken using Eclipse 90i Microscope. Image Pro-Analyzer 7.0 was used for analysis of migrated cells.

[7] = 75 mg/kg twice daily, data not shown

Cc1cccc(-c2nn3c(c2-c2ccnc4ccc(C(N)=O)cc24)CCC3)n1.O [galunisertib, 4-[2-(6-methylpyridin-2-yl)-5,6-dihydro-4H-pyrrolo[1,2-b]pyrazol-3-yl]quinoline-6-carboxamide monohydrate]
IC50 ([1]; Mv1Lu): 0.251 µM | IC50 [1]: 0.25 µM | clinical activity, phase II [2]: clinical activity | tumor growth delay ([3]; 75 mg/kg twice daily oral gavage, 500 mm^3 crossing time, p = 0.034): 8.3 ± 2.6 days | body weight [3, 7]: No body weight loss | IC50 [4]: 0.221 µM | IC50 (RSK4): 0.72 µM | IC50 (Alk3/BMPR1A): 16.8 µM | IC50 (Abl1): 0.86 µM | IC50 (ACVR2B): 0.69 µM and 0.694 µM | IC50 (TGFβR2): 0.21 µM | IC50 (TGFβR2; listed as Galunisertib): 0.208 µM | IC50 (Alk4/ACVR1B): 0.08 µM | IC50 (Alk4/ACVR1B; listed as Galunisertib): 0.0777 µM | IC50 (TNIK): 0.51 µM | IC50 (MINK): 0.19 µM | IC50 (RIPK2): 0.22 µM | IC50 (GAK): 0.31 µM | IC50 (Alk1/ACVRL1): > 20 µM | IC50 (ZAK): 0.86 µM | IC50 (ACVR2A): > 20 µM | IC50 (BMPR2): > 60 µM | IC50 (Braf): 0.5 µM | IC50 (Alk2/ACVR1): > 20 µM | IC50 (NLK): 0.91 µM | IC50 (CSNK1E1): 0.4 µM | IC50 (Alk6/BMPR1): 0.47 µM | IC50 (Alk6/BMPR1; listed as Galunisertib): 0.471 µM | tumor growth delay ([5]; 75 mg/kg twice daily oral gavage, 1500 mm^3 crossing time, p = 0.014): 10.3 ± 4.3 days | body weight [5, 7]: No body weight loss | adverse effects at high doses [6]: associated with adverse effects | TGFβ1-enhanced cell migration (U87MG glioblastoma cells; 1, 3, 10 μM, rhTGFβ1 10 ng/ml, 48 hours): blocked cell migration in a dose dependent manner | baseline migration in the absence of exogenous TGFβ1 (U87MG glioblastoma cells; galunisertib alone): reduced baseline migration
